Structures are written as SMILES. Bounds are passed on as bounds.

Assay [1] addresses T1, BaF3 cells expressing the target EGFR mutations (Homo sapiens, UniProt P00533, T790M/L858R, cells depend on it).
T1 construct: IC50, BAF3 EGFR L858R-T790M PURO POOL; other: BAF3 EGFR L858R-T790M PURO POOL cells, MTT; IC50, BAF3 EGFR L858R-T790M PURO POOL; other: BAF3 EGFR L858R-T790M PURO POOL cells; MTT
The assay can be described thus: Antiproliferative activity (MTT) against BaF3 cells expressing the target EGFR mutations. The format is cell-based. As to conditions: BAF3 EGFR L858R-T790M PURO POOL cells, read-out: IC50, BAF3 EGFR L858R-T790M PURO POOL. The procedure, abridged:
(§1)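 MTT read-out; BaF3 lines carrying EGFR mutations vs wildtype-EGFR BaF3 control.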

In assay [2] the target is T2, BaF3 cells expressing the target EGFR mutations (Homo sapiens, UniProt P00533, T790M, cells depend on it, form not given).
T2 construct: IC50, BAF3 EGFR DEL T790M PURO POOL; other: BAF3 EGFR DEL T790M PURO POOL cells, MTT; other: BAF3 EGFR DEL T790M PURO POOL cells; MTT
T2 sequence (P00533 with tags, fused parts or gaps DEL746-750/T790M, form open): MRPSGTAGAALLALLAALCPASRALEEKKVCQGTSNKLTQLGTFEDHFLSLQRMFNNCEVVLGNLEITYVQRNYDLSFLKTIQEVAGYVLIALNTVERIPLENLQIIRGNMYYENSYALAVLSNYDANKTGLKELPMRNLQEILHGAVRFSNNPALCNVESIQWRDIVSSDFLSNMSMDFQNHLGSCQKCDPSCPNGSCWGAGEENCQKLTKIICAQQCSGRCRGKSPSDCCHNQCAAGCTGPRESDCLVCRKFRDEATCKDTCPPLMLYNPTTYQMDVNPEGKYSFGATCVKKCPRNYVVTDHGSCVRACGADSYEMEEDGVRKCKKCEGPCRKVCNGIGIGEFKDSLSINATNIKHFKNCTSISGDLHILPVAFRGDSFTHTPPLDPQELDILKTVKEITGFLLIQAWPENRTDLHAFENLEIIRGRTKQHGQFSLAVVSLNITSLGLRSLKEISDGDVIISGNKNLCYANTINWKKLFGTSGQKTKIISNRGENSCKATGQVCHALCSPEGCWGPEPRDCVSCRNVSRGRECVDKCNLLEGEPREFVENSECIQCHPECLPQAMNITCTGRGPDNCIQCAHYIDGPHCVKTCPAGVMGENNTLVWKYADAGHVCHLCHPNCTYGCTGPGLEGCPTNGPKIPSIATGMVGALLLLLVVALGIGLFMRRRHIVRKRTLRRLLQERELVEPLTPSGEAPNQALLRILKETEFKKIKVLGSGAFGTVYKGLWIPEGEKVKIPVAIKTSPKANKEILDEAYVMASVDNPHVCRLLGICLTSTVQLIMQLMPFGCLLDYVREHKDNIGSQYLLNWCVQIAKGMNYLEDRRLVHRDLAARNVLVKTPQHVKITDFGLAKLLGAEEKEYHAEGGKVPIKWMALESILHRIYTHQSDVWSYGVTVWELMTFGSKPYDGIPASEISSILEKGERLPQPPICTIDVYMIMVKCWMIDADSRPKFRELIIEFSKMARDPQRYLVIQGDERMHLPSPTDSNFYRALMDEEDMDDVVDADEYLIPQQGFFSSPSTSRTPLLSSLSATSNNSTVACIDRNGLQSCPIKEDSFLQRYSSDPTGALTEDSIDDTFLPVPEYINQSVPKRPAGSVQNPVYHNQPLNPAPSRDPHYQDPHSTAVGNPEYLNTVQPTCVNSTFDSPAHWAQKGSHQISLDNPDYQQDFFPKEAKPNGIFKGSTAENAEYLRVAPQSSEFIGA
The description is as above. The note with it: BAF3 EGFR DEL T790M PURO POOL cells, read-out: IC50, BAF3 EGFR DEL T790M PURO POOL. The format is cell-based. The procedure, abridged: as §1

Assay [3] has as its system BaF3 cells expressing wildtype EGFR. The assay can be described thus: Antiproliferative activity (MTT) against control BaF3 cells expressing wildtype EGFR. Type of assay: cell-based. The note with it: Mus musculus, BAF3 PARENTAL cells (control). The procedure, abridged:
as §1

The target of assay [4] is EGFR L858R/T790M (Homo sapiens, UniProt P00533, L858R/T790M). The assay can be described thus: Kinase inhibitory activity against EGFR bearing the L858R/T790M double mutation. Type of assay: biochemical. The note with it: EGFR L858R/T790M double mutation; 10 μM ATP; read-out: IC50 for kinase inhibition, EGFR L858R T790M. The procedure, abridged:
(§2)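 Testing covers a ten-concentration range beginning at 3 μM, performed once per concentration at an ATP level of 10 μM.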

Assay [5] concerns the target human EGFR (native sequence) (Homo sapiens, UniProt P00533). The assay can be described thus: Kinase inhibitory activity against human EGFR (native sequence). Type of assay: biochemical. The note with it: human EGFR native sequence; 10 μM ATP; read-out: IC50 for kinase inhibition, EGFR. The procedure, abridged:
as §2

Assay [6] deals with EGFR L858R (Homo sapiens, UniProt P00533, L858R). The assay can be described thus: Kinase inhibitory activity against EGFR bearing the L858R mutation. Type of assay: biochemical. The note with it: EGFR L858R; 10 μM ATP; read-out: IC50 for kinase inhibition, EGFR L858R. The procedure, abridged: as §2
EGFR L858R, sequence (P00533 25-1210 L858R): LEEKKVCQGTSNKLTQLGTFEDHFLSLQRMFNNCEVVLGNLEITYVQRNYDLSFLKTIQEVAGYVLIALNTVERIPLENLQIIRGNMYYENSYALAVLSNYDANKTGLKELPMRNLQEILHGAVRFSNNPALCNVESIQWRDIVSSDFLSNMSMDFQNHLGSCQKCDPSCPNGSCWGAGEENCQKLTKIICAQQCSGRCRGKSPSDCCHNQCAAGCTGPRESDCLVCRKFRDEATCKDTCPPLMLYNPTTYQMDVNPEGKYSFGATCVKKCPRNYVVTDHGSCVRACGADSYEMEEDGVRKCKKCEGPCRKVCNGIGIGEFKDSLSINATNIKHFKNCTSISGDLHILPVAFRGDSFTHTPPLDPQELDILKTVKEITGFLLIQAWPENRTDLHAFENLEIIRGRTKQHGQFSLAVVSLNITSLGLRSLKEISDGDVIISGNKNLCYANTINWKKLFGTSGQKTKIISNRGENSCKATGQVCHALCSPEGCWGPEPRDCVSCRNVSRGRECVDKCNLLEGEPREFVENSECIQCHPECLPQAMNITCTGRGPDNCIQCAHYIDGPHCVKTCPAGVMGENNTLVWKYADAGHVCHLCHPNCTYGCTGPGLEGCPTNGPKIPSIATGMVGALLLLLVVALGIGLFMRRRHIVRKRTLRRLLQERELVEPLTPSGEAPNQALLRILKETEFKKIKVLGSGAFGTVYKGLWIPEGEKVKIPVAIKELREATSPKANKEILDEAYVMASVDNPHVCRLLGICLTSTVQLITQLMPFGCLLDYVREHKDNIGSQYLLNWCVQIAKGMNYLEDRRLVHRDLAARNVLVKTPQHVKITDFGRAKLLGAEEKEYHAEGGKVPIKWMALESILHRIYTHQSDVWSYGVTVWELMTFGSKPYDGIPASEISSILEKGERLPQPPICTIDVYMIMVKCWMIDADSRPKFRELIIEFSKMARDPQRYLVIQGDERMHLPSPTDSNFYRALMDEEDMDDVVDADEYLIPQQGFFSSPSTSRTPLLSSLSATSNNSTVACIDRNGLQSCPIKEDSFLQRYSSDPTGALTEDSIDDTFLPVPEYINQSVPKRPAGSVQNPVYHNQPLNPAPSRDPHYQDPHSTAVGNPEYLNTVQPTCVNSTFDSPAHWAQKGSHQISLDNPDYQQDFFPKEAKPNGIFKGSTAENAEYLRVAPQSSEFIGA

T1 sequence (P00533 whole entry T790M/L858R): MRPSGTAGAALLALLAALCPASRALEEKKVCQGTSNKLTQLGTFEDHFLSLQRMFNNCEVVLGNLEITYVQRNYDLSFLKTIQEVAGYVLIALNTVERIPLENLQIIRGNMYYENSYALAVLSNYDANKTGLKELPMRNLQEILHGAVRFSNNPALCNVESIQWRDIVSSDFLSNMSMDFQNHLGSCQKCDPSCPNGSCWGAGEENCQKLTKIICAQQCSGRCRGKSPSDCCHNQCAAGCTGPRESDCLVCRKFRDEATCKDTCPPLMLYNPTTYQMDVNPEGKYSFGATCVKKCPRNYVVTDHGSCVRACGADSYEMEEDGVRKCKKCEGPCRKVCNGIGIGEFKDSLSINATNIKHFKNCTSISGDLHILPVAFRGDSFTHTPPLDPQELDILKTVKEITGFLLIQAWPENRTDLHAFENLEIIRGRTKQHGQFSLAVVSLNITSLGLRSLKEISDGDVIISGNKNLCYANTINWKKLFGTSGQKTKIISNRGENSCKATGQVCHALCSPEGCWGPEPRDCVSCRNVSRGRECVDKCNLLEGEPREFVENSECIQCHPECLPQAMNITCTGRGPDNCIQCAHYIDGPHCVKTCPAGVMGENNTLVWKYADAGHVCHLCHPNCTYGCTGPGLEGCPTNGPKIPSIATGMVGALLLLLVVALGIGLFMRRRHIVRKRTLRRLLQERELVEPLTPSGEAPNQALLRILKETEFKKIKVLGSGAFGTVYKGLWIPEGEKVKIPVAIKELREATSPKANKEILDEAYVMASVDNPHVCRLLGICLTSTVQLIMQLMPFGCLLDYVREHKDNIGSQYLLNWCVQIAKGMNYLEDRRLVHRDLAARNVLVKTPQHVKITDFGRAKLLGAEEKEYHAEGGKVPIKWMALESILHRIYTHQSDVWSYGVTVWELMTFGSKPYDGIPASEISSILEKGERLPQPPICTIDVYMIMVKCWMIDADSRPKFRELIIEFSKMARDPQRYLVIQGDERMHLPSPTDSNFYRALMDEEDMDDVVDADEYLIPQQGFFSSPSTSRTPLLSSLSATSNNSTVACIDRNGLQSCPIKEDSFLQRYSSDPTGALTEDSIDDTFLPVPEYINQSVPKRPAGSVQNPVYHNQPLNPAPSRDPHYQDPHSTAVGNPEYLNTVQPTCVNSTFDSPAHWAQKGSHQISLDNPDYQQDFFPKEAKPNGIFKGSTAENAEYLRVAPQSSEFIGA
human EGFR (native sequence), sequence (P00533 25-1210): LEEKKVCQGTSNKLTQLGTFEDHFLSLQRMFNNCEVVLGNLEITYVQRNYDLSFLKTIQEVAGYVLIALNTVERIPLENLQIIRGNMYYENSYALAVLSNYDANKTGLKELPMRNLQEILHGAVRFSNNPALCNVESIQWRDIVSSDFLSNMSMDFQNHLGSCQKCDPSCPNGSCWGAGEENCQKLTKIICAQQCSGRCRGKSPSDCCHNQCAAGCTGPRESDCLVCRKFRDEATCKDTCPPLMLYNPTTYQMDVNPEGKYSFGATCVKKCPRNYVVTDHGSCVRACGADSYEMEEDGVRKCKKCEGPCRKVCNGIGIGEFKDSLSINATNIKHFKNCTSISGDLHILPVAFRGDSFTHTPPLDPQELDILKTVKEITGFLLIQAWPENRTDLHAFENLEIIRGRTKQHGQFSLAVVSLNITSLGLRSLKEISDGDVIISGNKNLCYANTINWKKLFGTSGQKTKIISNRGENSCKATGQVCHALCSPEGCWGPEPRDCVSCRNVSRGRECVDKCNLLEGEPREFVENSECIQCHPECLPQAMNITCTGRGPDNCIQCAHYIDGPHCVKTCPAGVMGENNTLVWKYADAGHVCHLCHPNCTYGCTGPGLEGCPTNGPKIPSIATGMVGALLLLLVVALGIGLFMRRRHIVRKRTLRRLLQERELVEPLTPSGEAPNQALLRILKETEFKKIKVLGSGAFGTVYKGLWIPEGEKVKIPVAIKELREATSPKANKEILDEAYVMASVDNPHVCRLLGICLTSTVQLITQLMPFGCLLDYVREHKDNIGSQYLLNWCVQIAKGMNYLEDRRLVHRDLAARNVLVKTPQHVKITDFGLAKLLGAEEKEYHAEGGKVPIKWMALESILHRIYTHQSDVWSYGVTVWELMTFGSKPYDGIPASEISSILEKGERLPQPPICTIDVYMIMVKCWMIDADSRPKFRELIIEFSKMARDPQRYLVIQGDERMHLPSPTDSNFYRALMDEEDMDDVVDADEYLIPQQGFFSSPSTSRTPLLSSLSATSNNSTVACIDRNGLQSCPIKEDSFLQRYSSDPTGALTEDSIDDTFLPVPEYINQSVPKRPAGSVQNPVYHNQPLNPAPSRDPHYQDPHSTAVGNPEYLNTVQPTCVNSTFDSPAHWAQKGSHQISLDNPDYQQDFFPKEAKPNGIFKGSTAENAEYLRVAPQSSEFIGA

One may read the IC50 as the midpoint of a concentration-inhibition curve. Regarding `COc1cc(F)c(NC(=O)C#CCCN2CCCCC2)cc1Nc1ncc(Cl)c(Nc2ccccc2P(C)(C)=O)n1` [Example 88, N-(5-((5-chloro-4-((2-(dimethylphosphoryl)phenyl)amino)pyrimidin-2-yl)amino)-2-fluoro-4-methoxyphenyl)-5-(piperidin-1-yl)pent-2-ynamide], the GI50 in assay [1] and in assay [2] was less than 0.05 µM in each case. In addition, the IC50 is no less than 0.25 µM in assay [3], less than 0.05 µM in assay [4], less than 0.05 µM in assay [5] and less than 0.05 µM in assay [6].

`COc1cc(F)c(NC(=O)C#CCN2CCCC2)cc1Nc1ncc(Cl)c(Nc2ccccc2P(C)(C)=O)n1` [Example 89, N-(5-((5-chloro-4-((2-(dimethylphosphoryl)phenyl)amino)pyrimidin-2-yl)amino)-2-fluoro-4-methoxyphenyl)-4-(pyrrolidin-1-yl)but-2-ynamide]: the GI50 in assay [1] and in assay [2] was less than 0.05 µM in each case. In addition, the half-maximal inhibitory concentration (IC50) is no less than 0.25 µM in assay [3], less than 0.05 µM in assay [4], less than 0.05 µM in assay [5] and less than 0.05 µM in assay [6].

With `COc1cc(F)c(NC(=O)C#CC(C)(C)N2CCCC2)cc1Nc1ncc(Cl)c(Nc2ccccc2P(C)(C)=O)n1` [Example 90, N-(5-((5-chloro-4-((2-(dimethylphosphoryl)phenyl)amino)pyrimidin-2-yl)amino)-2-fluoro-4-methoxyphenyl)-4-methyl-4-(pyrrolidin-1-yl)pent-2-ynamide], the GI50 in assay [1] and in assay [2] was less than 0.05 µM throughout. In addition, the half-inhibitory concentration (IC50) in assay [3] was no less than 0.25 µM; in assay [4], less than 0.05 µM; in assay [5] it was less than 0.05 µM; in assay [6], less than 0.05 µM.

With `COc1ccc(NC(=O)C#CC(C)(C)N2CCCC2)cc1Nc1ncc(Cl)c(Nc2ccccc2P(C)(C)=O)n1` [Example 91, N-(3-((5-chloro-4-((2-(dimethylphosphoryl)phenyl)amino)pyrimidin-2-yl)amino)-4-methoxyphenyl)-4-methyl-4-(pyrrolidin-1-yl)pent-2-ynamide], the GI50 in assay [1] and in assay [2] was less than 0.05 µM throughout. Moreover, the IC50 is no less than 0.25 µM in assay [3], less than 0.05 µM in assay [4], less than 0.05 µM in assay [5] and less than 0.05 µM in assay [6].

Take `COc1ccc(NC(=O)/C=C/CN2CCCCC2)cc1Nc1ncc(Cl)c(Nc2ccccc2P(C)(C)=O)n1` [Example 92, (E)—N-(3-((5-chloro-4-((2-(dimethylphosphoryl)phenyl)amino)pyrimidin-2-yl)amino)-4-methoxyphenyl)-4-(piperidin-1-yl)but-2-enamide]: the GI50 in assay [1] and in assay [2] was less than 0.05 µM each time. The half-maximal inhibitory concentration (IC50) in assay [3] was no less than 0.25 µM; in assay [4], less than 0.05 µM; in assay [5], less than 0.05 µM; in assay [6] it was less than 0.05 µM.

As to `COc1ccc(NC(=O)C#Cc2ccccc2)cc1Nc1ncc(Cl)c(Nc2ccccc2P(C)(C)=O)n1` [Example 93, N-(3-((5-chloro-4-((2-(dimethylphosphoryl)phenyl)amino)pyrimidin-2-yl)amino)-4-methoxyphenyl)-3-phenylpropiolamide], the GI50 in assay [1] and in assay [2] was less than 0.05 µM in each case. For the same compound, the IC50 in assay [3] was no less than 0.25 µM; in assay [4], less than 0.05 µM; in assay [5] it was no less than 0.25 µM; in assay [6], less than 0.05 µM.

On to `COc1ccc(NC(=O)/C=C/C2(N)CC2)cc1Nc1ncc(Cl)c(Nc2ccccc2P(C)(C)=O)n1` [Example 94, (E)-3-(1-aminocyclopropyl)-N-(3-((5-chloro-4-((2-(dimethylphosphoryl)phenyl)amino)pyrimidin-2-yl)amino)-4-methoxyphenyl)acrylamide], for which the GI50 in assay [1] and in assay [2] was no less than 0.25 µM each time. Also, the IC50 in assay [3] was no less than 0.25 µM; in assay [4], less than 0.05 µM; in assay [5] it was 0.101 to 0.25 µM; in assay [6], less than 0.05 µM.

`COc1ccc(NC(=O)/C=C/CN2CCCC2)cc1Nc1ncc(Cl)c(Nc2ccccc2P(C)(C)=O)n1` [Example 95, (E)—N-(3-((5-chloro-4-((2-(dimethylphosphoryl)phenyl)amino)pyrimidin-2-yl)amino)-4-methoxyphenyl)-4-(pyrrolidin-1-yl)but-2-enamide]: the GI50 in assay [1] was no less than 0.25 µM; in assay [2], 0.05 to 0.1 µM. Further, the concentration for half-maximal inhibition (IC50) in assay [3] was no less than 0.25 µM; in assay [4], less than 0.05 µM; in assay [5], no less than 0.25 µM; in assay [6], less than 0.05 µM.

`C=CC(=O)Nc1cc(Nc2ncc(Cl)c(Nc3ccccc3P(C)(C)=O)n2)c(OC)cc1C#CCN(CC)CC` [Example 96, N-(5-((5-chloro-4-((2-(dimethylphosphoryl)phenyl)amino)pyrimidin-2-yl)amino)-2-(3-(diethylamino)prop-1-yn-1-yl)-4-methoxyphenyl)acrylamide]: the GI50 in assay [1] and in assay [2] was less than 0.05 µM each time. The IC50 in assay [3] was no less than 0.25 µM; in assay [4] it was less than 0.05 µM; in assay [5], no less than 0.25 µM; in assay [6] it was less than 0.05 µM.

In the case of `COCC#CC(=O)Nc1ccc(OC)c(Nc2ncc(Cl)c(Nc3ccccc3P(C)(C)=O)n2)c1` [Example 97, N-(3-((5-chloro-4-((2-(dimethylphosphoryl)phenyl)amino)pyrimidin-2-yl)amino)-4-methoxyphenyl)-4-methoxybut-2-ynamide], the GI50 in assay [1] and in assay [2] was less than 0.05 µM throughout. Besides, the IC50 in assay [3] was no less than 0.25 µM; in assay [4], less than 0.05 µM; in assay [5], less than 0.05 µM; in assay [6], less than 0.05 µM.

Regarding `C=CC(=O)Nc1cc(Nc2ncc(Cl)c(Nc3ccc(OCCN4CCCC4)cc3P(C)(C)=O)n2)c(OC)cc1F` [Example 98, N-(5-((5-chloro-4-((2-(dimethylphosphoryl)-4-(2-(pyrrolidin-1-yl)ethoxy)phenyl)amino)pyrimidin-2-yl)amino)-2-fluoro-4-methoxyphenyl)acrylamide], the GI50 in assay [1] and in assay [2] was less than 0.05 µM in each case. Besides, the IC50 was no less than 0.25 µM in assay [3], less than 0.05 µM in assay [4], less than 0.05 µM in assay [5] and less than 0.05 µM in assay [6].

In the case of `C=CC(=O)Nc1ccc(OC)c(Nc2ncc(Cl)c(Nc3ccc(OC4CCOC4)cc3P(C)(C)=O)n2)c1` (stereo not drawn) [Example 99, N-(3-((5-chloro-4-((2-(dimethylphosphoryl)-4-((tetrahydrofuran-3-yl)oxy)phenyl)amino)pyrimidin-2-yl)amino)-4-methoxyphenyl)acrylamide], the GI50 in assay [1] was 0.05 to 0.1 µM; in assay [2], less than 0.05 µM. Besides, the concentration for half-maximal inhibition (IC50) in assay [3] was no less than 0.25 µM; in assay [4] it was less than 0.05 µM; in assay [5], less than 0.05 µM; in assay [6] it was less than 0.05 µM.

For the compound `C=CC(=O)Nc1ccc(OC)c(Nc2ncc(Cl)c(Nc3ccc(OCC4CCOCC4)cc3P(C)(C)=O)n2)c1` [Example 100, N-(3-((5-chloro-4-((2-(dimethylphosphoryl)-4-((tetrahydro-2H-pyran-4-yl)methoxy)phenyl)amino)pyrimidin-2-yl)amino)-4-methoxyphenyl)acrylamide], the GI50 in assay [1] and in assay [2] was less than 0.05 µM each time. For the same compound, the IC50 in assay [3] was no less than 0.25 µM; in assay [4] it was less than 0.05 µM; in assay [5], 0.05 to 0.1 µM; in assay [6], less than 0.05 µM.

As to `COc1cc(N2CCOCC2)c(NC(=O)C#CCCN2CCCCC2)cc1Nc1ncc(Cl)c(Nc2ccccc2P(C)(C)=O)n1` [Example 101, N-(5-((5-chloro-4-((2-(dimethylphosphoryl)phenyl)amino)pyrimidin-2-yl)amino)-4-methoxy-2-morpholinophenyl)-5-(piperidin-1-yl)pent-2-ynamide], the GI50 in assay [1] and in assay [2] was less than 0.05 µM each time. For the same compound, the IC50 in assay [3] was no less than 0.25 µM; in assay [4], less than 0.05 µM; in assay [5], less than 0.05 µM; in assay [6], less than 0.05 µM.

In the case of `CC#CC(=O)Nc1cc(Nc2ncc(Cl)c(Nc3ccccc3P(C)(C)=O)n2)c(OC)cc1OCC1CCOCC1` [Example 102, N-(5-((5-chloro-4-((2-(dimethylphosphoryl)phenyl)amino)pyrimidin-2-yl)amino)-4-methoxy-2-((tetrahydro-2H-pyran-4-yl)methoxy)phenyl)but-2-ynamide], the GI50 in assay [1] was 0.05 to 0.1 µM; in assay [2] it was less than 0.05 µM. The IC50 in assay [3] is no less than 0.25 µM; in assay [4], no less than 0.25 µM; in assay [5], no less than 0.25 µM; in assay [6], 0.101 to 0.25 µM.

The record behind these values is patent US9834571B2, “Compounds for inhibiting cell proliferation in EGFR-driven cancers” (ARIAD Pharmaceuticals, Inc., priority 2012, dated 2017).
